From patent US9872861B2, “Methods of treatment using selective Bcl-2 inhibitors” (AbbVie Inc., priority 2010, dated 2018)
pEC50: −log10 of the molar value. Marks after values point to notes of the source that are not given here.

Assays:
[1] = test system: spontaneous (NZB×NZW)F1 murine model of lupus; test: Spontaneous (NZB×NZW)F1 murine model of lupus: proteinuria, survival, lymphopenia; format: in vivo, (NZB×NZW)F1 mice
Source text: (See Liu, K. and C. Mohan, What do mouse models teach us about human SLE? Clin Immunol, 2006. 119(2): p. 123-30) This model has been well-characterized with respect to the patho-physiological changes analogous to those of human SLE. […] Renal histopathological changes include severe glomerulonephritis, mesangial and peripheral proliferative changes, capillary membrane thickening, tubular atrophy, and infiltration of lymphocytes and monocytes/macrophages as in the majority of human SLE patients. These changes result in disruption of kidney function as evidenced by severe proteinuria (PU) greater than 300 mg/dL as measured by albumin sticks, followed by mortality as measured by survival. […] (See Gelfand, M. C. and A. D. Steinberg, Therapeutic studies in NZB-W mice. II. Relative efficacy of azathioprine, cyclophosphamide and methylprednisolone. Arthritis Rheum, 1972. 15(3): p. 247-52; and Ramos, M. A., et al., Modulation of autoantibody production by mycophenolate mofetil: effects on the development of SLE in (NZB×NZW)F1 mice. Nephrol Dial Transplant, 2003. 18(5): p. 878-83)
(NZB×NZW)F1 females were purchased from The Jackson Laboratory (Bar Harbor, Me., USA) and maintained in a conventional animal housing facility throughout the experiment. […] Proteinuria (PU) and survival were monitored weekly, followed by biweekly measurement of lymphocyte and platelet counts, and anti-ds DNA production. PK parameters were also measured throughout the study. Impact on IgG deposition and renal pathology were assessed at the conclusion of the study. Severe PU was defined by two consecutive weekly measurements of PU 300 mg/dl using Albustix test strips (VWR). When mice became moribund, they were sacrificed according to Institutional Animal Care and Use Committee protocols. PU and survival data were presented as Kaplan-Meyer survival curves using Graphpad Prism software and group differences were considered significant at the level of p<0.05. Histologic scores were analyzed using ANOVA analysis. Anti-ds DNA were analyzed using one-way ANOVA analysis and Tukey post-test.

[2] = test system: IFNα-induced (NZB×NZW)F1 lupus model; test: IFNα-induced (NZB×NZW)F1 lupus model: proteinuria, survival, lymphopenia; format: in vivo, (NZB×NZW)F1 mice
Procedure: Treatment was initiated in a late-prophylactic mode (7 days after IFNα adenovirus). […] All treatment groups were administered treatment 7 days after adenovirus injection. Following adenovirus injection, mice were monitored weekly for proteinuria (PU) using Albustix test strips (VWR). Severe PU was defined by consecutive weekly measurements of PU≧300 mg/dl. When mice became moribund, they were sacrificed according to Institutional Animal Care and Use Committee protocols.

[3] = test system: peripheral blood immune cells and platelets; test: Peripheral blood lymphocytes and platelets in (NZB×NZW)F1 mice, Cell Dyn hematology analyzer; format: in vivo; conditions: (NZB×NZW)F1 mice, four days, orally every day
[4] = test system: submandibular salivary gland; test: Salivary gland histology in spontaneous murine model of lupus; format: in vivo, (NZB×NZW)F1 mice
Source text: It is recognized within the art that Sjogren's Syndrome is a chronic disease state that affects the moisture-producing glands of the body, including the salivary glands of the mouth. As such, it was theorized that penetration of the selective Bcl-2 inhibitors into the salivary glands of patients with Sjogren's Syndrome could provide an effective treatment to decrease lymphocytes associated with Sjogren's Syndrome, without the dose-limiting thrombocytopenia associated with non-selective Bcl-2 inhibition. A histologic assessment of the penetration of selective Bcl-2 inhibitors into the salivary glands of spontaneous murine model for lupus was performed to test this theory. The spontaneous murine model of lupus, as described in Example 3, was used for the histological assessment described herein. Specifically, sublingual and submandibular salivary glands were fixed in 10% neutral-buffered formalin and paraffin embedded. Five μm sections were H&E stained and semiquantitatively scored (0-4) by an experienced pathologist for inflammatory cell infiltrates. Salivary gland infiltrate scoring categories: (1) 3 or fewer small periductular foci, (2) 3 or more medium sized foci, (3) several extensive foci, and (4) coalescing to diffuse infiltrates. The histologic assessment of the submandibular tissue sections is illustrated in FIG. 11.

[5] = Exposure in spontaneous lupus model; format: in vivo; conditions: 30 mg/kg dosing
Source text: When mice became moribund, they were sacrificed according to Institutional Animal Care and Use Committee protocols.

IgG anti-ds DNA = test: Anti-ds DNA titer by ELISA in IFNα-accelerated lupus model; format: in vivo, (NZB×NZW)F1 mice; conditions: interferon-induced model, 3-30 mg/kg
Procedure: An additional experiment was performed to determine the effects of treatment with a selective Bcl-2 inhibitor on anti-DS DNA titer in the Interferon-α accelerated lupus model. Anti-dsDNA antibody levels were measured by ELISA and assigned arbitrary activity unit concentrations per ml relative to a standard plasma pool derived from proteinuric 9-10 month old NZB/W mice. ELISA assay was performed by coating plates with poly-L-lysine followed by calf-thymus DNA. Diluted mouse plasma was incubated and developed using anti-IgG HRP conjugated antibodies and the mean OD from duplicate wells was compared to a titrated standard curve of pooled high tittered anti-dsDNA plasma. The undiluted standard plasma pool was arbitrarily assigned a value of 1000 anti-dsDNA Units/ml. A linear regression analysis was then used to calculate the relative units of a given sample multiplied by the given dilution factor. The results of this experiment are illustrated in FIG. 10.

H146 cells = test: Cellular efficacy in Bcl-XL dependent tumor cell line H146; format: cell-based; conditions: Homo sapiens, NCI-H146; 10% HS

## CC1(C)CCC(CN2CCN(c3ccc(C(=O)NS(=O)(=O)c4ccc(NCC5CCOCC5)c([N+](=O)[O-])c4)c(Oc4cnc5[nH]ccc5c4)c3)CC2)=C(c2ccc(Cl)cc2)C1 [Compound 1, 4-(4-{[2-(4-chlorophenyl)-4,4-dimethylcyclohex-1-en-1-yl]methyl}piperazin-1-yl)-N-({3-nitro-4-[(tetrahydro-2H-pyran-4-ylmethyl)amino]phenyl}sulfonyl)-2-(1H-pyrrolo[2,3-b]pyridin-5-yloxy)benzamide]
[1]; Week 47, 1 mg/kg daily oral
  % Mice with PU < 300 mg/dL: 51%
  % Survival: 60%
[1]; Week 47, 3 mg/kg daily oral
  % Mice with PU < 300 mg/dL: 50%
  % Survival: 70%
[1]; Week 47, 10 mg/kg daily oral
  % Mice with PU < 300 mg/dL: 66* %
  % Survival: 83* %
[1]; Week 47, 30 mg/kg daily oral
  % Mice with PU < 300 mg/dL: 94* %
  % Survival: 100* %
[1]; Week 47, 100 mg/kg daily oral
  % Mice with PU < 300 mg/dL: 100* %
  % Survival: 100* %
[1]; spontaneous model, 30 mg/kg
  lymphopenia in peripheral blood: 70%
[1]; spontaneous model, 100 mg/kg
  lymphopenia in peripheral blood: 70%
[1]; spontaneous model, 3, 10, 30 and 100 mg/kg
  survival: significantly prolonged survival
[1]; spontaneous model, reaching significance at 10, 30 and 100 mg/kg
  onset of severe PU: delayed onset of severe PU in a dose-dependent fashion
[2]; 30 mg/kg
  lymphopenia in the blood throughout treatment: > 70%
[2]; 30 mg/kg/day orally
  % Mice with PU < 300 mg/dL: 77* %
  % Survival: 82* %
[2]; 30 and 100 mg/kg
  onset of severe PU and survival: significantly delayed the onset of severe PU and prolonged survival
[3]
  lymphocytes in peripheral blood: dose dependent decrease in lymphocytes
  platelet counts: maintaining normal platelet counts
[4]; 30 mg/kg and 100 mg/kg
  submandibular salivary gland histology scores vs untreated: statistically significant improvement
[4]; 30 mg/kg and 100 mg/kg, scale 0-4, untreated mice 3-4
  salivary gland histology score: 1-2
[4]; 30 or 100 mg/kg
  salivary gland infiltrates: small, discrete and less frequent
[5]
  exposure: 40 µg·h/mL
IgG anti-ds DNA
  anti-ds DNA titer: did not significantly inhibit
H146 cells
  pEC50: 5.44
